Test results reported in publication PMC5500849, “Cobamide-mediated enzymatic reductive dehalogenation via long-range electron transfer” (Nature Communications, 2017).

Columns and labels:
[1] = biological target: T1, PceA (PceA–Strep) (Sulfurospirillum multivorans, UniProt O68252); experiment: crystal structure, soaked crystal; format: binding; conditions: [Co(II)] state
T1 construct: C-terminal Strep-tag II, homologously produced in S. multivorans GD21 (genomic pceAB), Strep-Tactin purified; crystals from mature enzyme (Tat signal peptide removed); holo with norpseudo-B12 and two [4Fe-4S] clusters

[2] = biological target: T1, PceA (PceA–Strep); experiment: inhibition of 4-BP dehalogenation; format: biochemical; conditions: 47 nM enzyme, dark 2 min; covalent, alkylates cobamide [Co(I)], reversed by light

T1 sequence (O68252 38-501): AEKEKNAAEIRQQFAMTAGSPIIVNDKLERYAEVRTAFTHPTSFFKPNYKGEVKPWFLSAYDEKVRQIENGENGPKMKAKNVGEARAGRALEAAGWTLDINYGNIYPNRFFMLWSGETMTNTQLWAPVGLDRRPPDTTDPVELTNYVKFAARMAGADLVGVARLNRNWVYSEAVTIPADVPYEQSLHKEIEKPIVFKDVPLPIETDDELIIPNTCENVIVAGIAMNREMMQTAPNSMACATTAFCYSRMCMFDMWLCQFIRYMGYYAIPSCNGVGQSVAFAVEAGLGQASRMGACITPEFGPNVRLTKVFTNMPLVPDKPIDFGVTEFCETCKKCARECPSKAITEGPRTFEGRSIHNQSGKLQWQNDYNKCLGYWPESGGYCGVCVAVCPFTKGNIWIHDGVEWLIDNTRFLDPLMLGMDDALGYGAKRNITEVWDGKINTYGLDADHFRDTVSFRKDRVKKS

`Oc1cccc(Br)c1` [3-BP] was tested, and the “crystal structure, soaked crystal” value ([1]; enzyme with methoxybenzimidazolyl-norcobamide instead of norpseudo-B12) was 5MAA (3-BP).
In the case of `Oc1cccc(Cl)c1` [3-CP], the “crystal structure, soaked crystal” value ([1]; active site, not dehalogenated) is reported as 5M8Y (3-CP).
In the case of `Oc1ccc(Cl)cc1` [4-CP], the “crystal structure, soaked crystal” value ([1]; active site, not dehalogenated) is reported as 5M8W (4-CP).
For `Oc1ccc(I)cc1` [4-IP], the “crystal structure, soaked crystal” value ([1]; active site, also surface groove site) was 5MA2 (4-IP).
For `CCCI` [propyl iodide], the “complete inhibition at 100 μM” value [2] was “complete inhibition of the PceA-mediated 4-BP dehalogenation by propyl iodide in the dark”.
